Measurements from the supplement of paper PMC10307832.

Columns and labels:
Experiment in all cases: relative viability (nuclei count vs DMSO), 5 days (fraction); higher = more cells survive
[1] = compound: CC(C)C[C@H](NC(=O)[C@H](Cc1ccccc1)NC(=O)c1cnccn1)B(O)O [Bortezomib] + Nc1ncn([C@H]2C[C@H](O)[C@@H](CO)O2)c(=O)n1 [Decitabine] (partner 2 µM)
How it was run: (§1)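 One day after seeding in 1536-well plates, lung cancer cell lines were dosed by pin tool. Dosing was either single-drug or a fixed anchor-drug dose plus five library-drug doses (not always all listed) in √10 steps. After 5 days, nuclei were stained in one fix-and-stain step and counted on 4× images, and relative viability is the nuclei count of treated wells over that of vehicle wells, given as the median of duplicate plates.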

[2] = compound: CC1=CC(=NN1)NC2=CC(=NC(=N2)/C=C/C3=CC=CC=C3)N4CCN(CC4)C + CCNC(=O)c1noc(-c2cc(C(C)C)c(O)cc2O)c1-c1ccc(CN2CCOCC2)cc1 [Luminespib] (partner 0.01 µM)
How it was run: as §1

[3] = compound: CC(C)C[C@H](NC(=O)[C@H](Cc1ccccc1)NC(=O)c1cnccn1)B(O)O [Bortezomib] + Cc1nc(NC(=O)N2CCC[C@H]2C(N)=O)sc1-c1ccnc(C(C)(C)C(F)(F)F)c1 [Alpelisib] (partner 2 µM)
How it was run: as §1

[4] = compound: CC(C)C[C@H](NC(=O)[C@H](Cc1ccccc1)NC(=O)c1cnccn1)B(O)O [Bortezomib] + Cc1nc(Nc2ncc(C(=O)Nc3c(C)cccc3Cl)s2)cc(N2CCN(CCO)CC2)n1 [Dasatinib] (partner 0.075 µM)
How it was run: as §1

NCI-H650 gave a relative viability ([1]; first compound 0.0002 µM) of 0.332, a relative viability ([1]; first compound 0.000632 µM) of 0.347 and a relative viability ([1]; first compound 0.002 µM) of 0.286. For the same cell line, the relative viability ([1]; first compound 0.006325 µM) was 0.216, the relative viability ([1]; first compound 0.02 µM) was 0.147 and the relative viability ([2]; first compound 0.253 µM) was 0.915. For the same cell line, the relative viability ([2]; first compound 0.8 µM) was 0.813, the relative viability ([2]; first compound 2.53 µM) was 0.411 and the relative viability ([2]; first compound 8 µM) was 0.111. It also gave a relative viability ([3]; first compound 0.000632 µM) of 1.18, a relative viability ([3]; first compound 0.002 µM) of 0.819 and a relative viability ([3]; first compound 0.006325 µM) of 0.355. For the same cell line, the relative viability ([3]; first compound 0.02 µM) was 0.182, the relative viability ([4]; first compound 0.000632 µM) was 0.503 and the relative viability ([4]; first compound 0.002 µM) was 0.428. For the same cell line, the relative viability ([4]; first compound 0.006325 µM) was 0.268 and the relative viability ([4]; first compound 0.02 µM) was 0.16.
